In brackets after ≈: the same amount, converted by molar mass. Values belong to the compound of their own block, whether it stands above or below them. Activity calls are given as the source filed them. The rule behind the calls is not given here.
Columns and labels:
[1] = Disruption of C-terminal REV-1/FAM-tagged Pol kappa RIR (unknown origin) interaction incubated for 1 hr by FP assay; set-up: species or system Homo sapiens
A549 = assay: Inhibition of cologenic survival in human A549 cells incubated for 8 to 10 days by crystal violet staining based analysis; type: functional, cell-based; details: time 8-10 day
[2] = Solubility of compound in PBS at pH 4; type: physicochemical; details: buffer
[3] = Solubility of compound in PBS at pH 7.4; type: physicochemical
[4] = Metabolic stability in human liver microsomes assessed as half life at 1 uM incubated upto 60 mins by LC-MS/MS analysis; type: ADME, Microsome; details: 1 h
[5] = Metabolic stability in human liver microsomes assessed as intrinsic clearance at 1 uM incubated upto 60 mins by LC-MS/MS analysis; type: ADME, Microsome; details: 1 h
SW1271 [6] = assay: Synergistic inhibition of cell viability in human SW1271 cells at 20 uM incubated for 5 days in presence of Olaparib/Temozolomide by Cell Titer Glo assay; type: functional, cell-based; details: time 5.0 day
DNA repair protein REV1 = target: T1, DNA repair protein REV1 (Homo sapiens, UniProt Q9UBZ9); assay: Binding affinity to C-terminal human REV-1 assessed as dissociation constant incubated for 30 mins by MST assay
T1 sequence (Q9UBZ9 whole entry): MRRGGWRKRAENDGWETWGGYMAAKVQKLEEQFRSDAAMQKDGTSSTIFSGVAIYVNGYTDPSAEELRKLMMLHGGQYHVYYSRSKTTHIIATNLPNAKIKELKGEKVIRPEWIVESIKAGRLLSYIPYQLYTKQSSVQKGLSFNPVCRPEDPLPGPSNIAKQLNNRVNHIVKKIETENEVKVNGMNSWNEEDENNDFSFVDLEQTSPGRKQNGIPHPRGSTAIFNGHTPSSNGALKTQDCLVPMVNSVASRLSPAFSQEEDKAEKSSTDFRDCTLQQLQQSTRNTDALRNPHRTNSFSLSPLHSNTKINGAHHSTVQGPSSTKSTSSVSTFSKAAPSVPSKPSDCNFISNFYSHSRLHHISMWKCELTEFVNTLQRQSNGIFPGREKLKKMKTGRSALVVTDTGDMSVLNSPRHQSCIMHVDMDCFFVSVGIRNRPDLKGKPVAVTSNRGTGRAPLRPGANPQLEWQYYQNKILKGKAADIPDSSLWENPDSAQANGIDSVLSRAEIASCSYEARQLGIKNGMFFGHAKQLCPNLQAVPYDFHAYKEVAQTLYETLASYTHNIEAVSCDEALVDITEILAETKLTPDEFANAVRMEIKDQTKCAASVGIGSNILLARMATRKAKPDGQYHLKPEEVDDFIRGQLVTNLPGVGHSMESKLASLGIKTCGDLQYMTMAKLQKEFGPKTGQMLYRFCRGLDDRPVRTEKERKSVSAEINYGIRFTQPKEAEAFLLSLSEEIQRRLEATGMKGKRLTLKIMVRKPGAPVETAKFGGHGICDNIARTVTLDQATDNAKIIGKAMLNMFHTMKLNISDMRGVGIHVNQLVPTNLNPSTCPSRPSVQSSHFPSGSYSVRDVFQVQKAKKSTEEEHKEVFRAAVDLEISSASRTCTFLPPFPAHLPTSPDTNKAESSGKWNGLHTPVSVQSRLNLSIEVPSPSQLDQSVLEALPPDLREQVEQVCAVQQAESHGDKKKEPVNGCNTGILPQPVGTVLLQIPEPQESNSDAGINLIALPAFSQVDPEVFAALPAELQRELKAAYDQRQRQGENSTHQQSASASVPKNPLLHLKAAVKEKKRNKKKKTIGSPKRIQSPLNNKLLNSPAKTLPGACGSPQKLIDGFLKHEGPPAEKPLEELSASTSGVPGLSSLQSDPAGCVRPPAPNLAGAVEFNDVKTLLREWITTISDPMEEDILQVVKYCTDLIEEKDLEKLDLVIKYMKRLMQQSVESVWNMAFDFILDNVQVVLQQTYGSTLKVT

MEF [7] = assay: Inhibition of cologenic survival in mouse MEF cells at 10 uM incubated for 24 hrs followed by fresh media replacement without compound measured after 4 days by crystal violet staining based analysis; type: functional, cell-based
MEF [8] = assay: Synergistic inhibition of cologenic survival in mouse MEF cells at 10 uM incubated for 24 hrs followed by fresh media replacement without compound measured after 4 days in presence of cisplatin by crystal violet staining based analysis; type: functional, cell-based
MEF [9] = assay: Synergistic inhibition of cologenic survival in mouse MEF cells with Rev1-/- at 10 uM incubated for 24 hrs followed by fresh media replacement without compound measured after 4 days in presence of cisplatin by crystal violet staining based analysis; type: functional, cell-based
SW1271 [10] = assay: Synergistic inhibition of cell viability in human SW1271 cells with Rev1-/- at 20 uM incubated for 5 days in presence of Olaparib/Temozolomide by Cell Titer Glo assay; type: functional, cell-based; details: time 5.0 day
[11] = Clearance in CD-1 mouse at 1 mg/kg, iv by LC-MS/MS analysis; type: ADME, organism-based; details: in vivo
[12] = Half life in CD-1 mouse at 1 mg/kg, iv by LC-MS/MS analysis; type: ADME, organism-based; details: CD-1, mouse, in vivo
[13] = C0 in CD-1 mouse at 1 mg/kg, iv by LC-MS/MS analysis; type: ADME, organism-based; details: CD-1, mouse, in vivo, read-out: C0
[14] = AUClast in CD-1 mouse at 1 mg/kg, iv by LC-MS/MS analysis; type: ADME, organism-based; details: in vivo
[15] = AUC (infinity) in CD-1 mouse at 1 mg/kg, iv by LC-MS/MS analysis; type: ADME, organism-based; details: in vivo
[16] = Area under curve extrapolated from the last time point to infinity in CD-1 mouse at 1 mg/kg, iv by LC-MS/MS analysis; type: ADME, organism-based; details: in vivo
[17] = MRT (infinity) in CD-1 mouse at 1 mg/kg, iv by LC-MS/MS analysis; type: ADME, organism-based; details: CD-1, mouse, in vivo
[18] = Dose normalized AUClast in CD-1 mouse at 1 mg/kg, iv by LC-MS/MS analysis; type: ADME, organism-based; details: in vivo
[19] = Volume of distribution at steady state in CD-1 mouse at 1 mg/kg, iv by LC-MS/MS analysis; type: ADME, organism-based; details: CD-1, mouse, in vivo, read-out: Vdss
[20] = Half life in CD-1 mouse at 100 mg/kg, ip by LC-MS/MS analysis; type: ADME, organism-based; details: in vivo
[21] = Tmax in CD-1 mouse at 100 mg/kg, ip by LC-MS/MS analysis; type: ADME, organism-based; details: in vivo
[22] = Cmax in CD-1 mouse at 100 mg/kg, ip by LC-MS/MS analysis; type: ADME, organism-based; details: in vivo
[23] = AUClast in CD-1 mouse at 100 mg/kg, ip by LC-MS/MS analysis; type: ADME, organism-based; details: in vivo
[24] = AUC (infinity) in CD-1 mouse at 100 mg/kg, ip by LC-MS/MS analysis; type: ADME, organism-based; details: in vivo
[25] = Area under curve extrapolated from the last time point to infinity in CD-1 mouse at 100 mg/kg, ip by LC-MS/MS analysis; type: ADME, organism-based; details: in vivo
[26] = MRT (infinity) in CD-1 mouse at 100 mg/kg, ip by LC-MS/MS analysis; type: ADME, organism-based; details: in vivo
[27] = Dose normalized AUClast in CD-1 mouse at 100 mg/kg, ip by LC-MS/MS analysis; type: ADME, organism-based; details: in vivo
[28] = Toxicity in BALB/c nude mouse assessed as effect on body weight at 30 to 100 mg/kg, po qd for 7 days; type: organism-based; details: in vivo, 168 h, dose 30-100 mg/kg, time 7 day
[29] = Toxicity in BALB/c nude mouse assessed as visual signs of toxicity at 30 to 100 mg/kg, po qd for 7 days; type: organism-based; details: in vivo, 168 h, dose 30-100 mg/kg, time 7 day
[30] = Toxicity in BALB/c nude mouse assessed as general impairment at 30 to 100 mg/kg, po qd for 7 days; type: organism-based; details: in vivo, 168 h, dose 30-100 mg/kg, time 7 day
[31] = Toxicity in BALB/c nude mouse assessed as decrease in animal weight at 200 mg/kg, po qd measured for 2 days; type: organism-based; details: in vivo, 48 h, time 2 day
[32] = Toxicity in BALB/c nude mouse assessed as animal death at 200 mg/kg, po qd measured for 3 days; type: organism-based; details: in vivo, 72 h, time 3 day
[33] = Toxicity in BALB/c nude mouse administered orally once daily for 7 days; details: in vivo, route po, time 7 day

IC50 [1]: > 100 µM
Compound: CCCc1cc(C(=O)OCC)c(NC(=O)c2cc(O)cc(O)c2)s1

Compound: C=CCOc1ccccc1C(=O)Nc1sc(CCC)cc1C(=O)OCC
IC50 [1]: 14.9 µM

Compound: CCCc1cc(C(=O)OCC)c(NC(=O)C2CCN(C(=O)OC(C)(C)C)CC2)s1
IC50 [1]: 2.3 µM

Compound: CCCc1cc(C(=O)OCC)c(NC(=O)C2CCN(C(C)=O)CC2)s1
IC50 [1]: 2.9 µM

IC50 [1]: > 100 µM
Compound: COC(=O)c1ccsc1NC(=O)C1CCN(C(C)=O)CC1

Compound: Cc1ccc(/N=N/c2ccc(N)nc2N)cc1C
inhibition (A549): Active

solubility [2]: 13.9 µM (≈ 5.97 µg/mL)
solubility [3]: 14.1 µM (≈ 6.06 µg/mL)
t1/2 [4]: 6.6 min
intrinsic clearance (CLint) [5]: 210 µL/min/mg
Compound: Cc1ccc(C(=O)N2CCN(c3ccccc3)CC2)cc1S(=O)(=O)N1CCOCC1

Compound: CCCc1cc(C(=O)OCC)c(NC(=O)c2ccccc2O)s1
IC50 [1]: 16.7 µM

Compound: Nc1ccc(/N=N/c2cccc(F)c2F)c(N)n1
inhibition (SW1271 [6]): Active
IC50 [1]: 0.4 µM
Kd (DNA repair protein REV1): 21 µM
solubility [2]: 4.5 µM (≈ 1.12 µg/mL)
solubility [3]: 8.5 µM (≈ 2.12 µg/mL)
t1/2 [4]: < 2.3 min
intrinsic clearance (CLint) [5]: > 300 µL/min/mg
inhibition (A549): Active
inhibition (MEF [7]): inactive
inhibition (MEF [8]): Active
inhibition (MEF [9]): inactive
inhibition (SW1271 [10]): inactive
clearance [11]: 177 mL/min/kg
half-life [12]: 20.3 min
C0 [13]: 412 ng/mL
AUC(0-t) [14]: 97 ng·h/mL
AUC(0-inf) [15]: 97 ng·h/mL
%AUCextra [16]: 0.77%
MRT inf [17]: 15.8 min
AUClast/dose [18]: 96.7 ng·h/mL
Vd [19]: 2.81 L/kg
half-life [20]: 269 min
Tmax [21]: 25 min
Cmax [22]: 12500 ng/mL
AUC(0-t) [23]: 25300 ng·h/mL
AUC(0-inf) [24]: 25500 ng·h/mL
%AUCextra [25]: 0.58%
MRT inf [26]: 124 min
AUClast/dose [27]: 253 ng·h/mL
Activity [28]: Non-Toxic
Activity [29]: Non-Toxic
Activity [30]: Non-Toxic
Activity [31]: Toxic
Activity [32]: Toxic
MTD at 168 h [33]: ≤ 100 mg/kg

Compound: CCCc1cc(C(=O)OCC)c(NC(=O)C2CCNCC2)s1
IC50 [1]: 3.8 µM

Compound: C=CCOc1cc(OCC=C)cc(C(=O)Nc2sc(CCC)cc2C(=O)OCC)c1
IC50 [1]: 49.7 µM

Compound: CCCc1cc(C(=O)OCC)c(NC(=O)C2CCCN(C(=O)OC(C)(C)C)C2)s1 (configuration not stated)
IC50 [1]: 2.5 µM

Compound: Nc1ccc(/N=N/c2ccc3ccccc3c2)c(N)c1
inhibition (A549): Active

Compound: CCCc1cc(C(=O)OCC)c(NC(=O)c2ccc(O)cc2)s1
IC50 [1]: 9.3 µM

Compound: Nc1ccc(/N=N/c2ccc3ccccc3c2)c(N)n1
inhibition (A549): Active

Source: ChEMBL document CHEMBL5576054, “Lead compound profiling for small molecule inhibitors of the REV1-CT/RIR Translesion synthesis Protein-Protein interaction” (Bioorg Med Chem, 2024)
